Our source for the IC50 values is ChEMBL document CHEMBL1128822, “Synthesis and biological evaluation of 2,3-diarylthiophenes as selective Cox-2 and Cox-1 inhibitors” (Bioorg Med Chem Lett, 1995).

Assay [1] has as its target T1, Prostaglandin G/H synthase 2 (Homo sapiens, UniProt P35354).
T1 sequence (P35354 whole entry): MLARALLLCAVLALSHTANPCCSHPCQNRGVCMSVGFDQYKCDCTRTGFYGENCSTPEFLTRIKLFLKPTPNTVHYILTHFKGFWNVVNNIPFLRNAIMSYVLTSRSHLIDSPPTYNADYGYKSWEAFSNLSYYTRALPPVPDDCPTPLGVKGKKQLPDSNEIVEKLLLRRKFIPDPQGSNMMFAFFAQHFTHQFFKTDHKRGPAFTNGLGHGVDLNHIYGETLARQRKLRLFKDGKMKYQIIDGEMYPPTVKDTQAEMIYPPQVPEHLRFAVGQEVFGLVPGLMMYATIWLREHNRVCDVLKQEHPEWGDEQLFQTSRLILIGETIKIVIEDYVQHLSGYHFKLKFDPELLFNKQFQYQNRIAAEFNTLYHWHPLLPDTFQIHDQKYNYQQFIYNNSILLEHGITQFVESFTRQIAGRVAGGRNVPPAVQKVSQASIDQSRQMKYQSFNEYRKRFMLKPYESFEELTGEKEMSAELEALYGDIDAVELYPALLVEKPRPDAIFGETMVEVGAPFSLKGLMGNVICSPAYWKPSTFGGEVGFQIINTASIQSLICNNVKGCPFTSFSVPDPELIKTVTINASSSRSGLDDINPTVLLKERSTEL
Put plainly: Inhibitory activity against human COX-2 expressed in baculovirus infected Sf9 cells. The format is cell-based.

Assay [2] concerns the target Prostaglandin G/H synthase 1 (Homo sapiens, UniProt P23219). As to the kind of experiment: Inhibitory activity against human COX-1 expressed in baculovirus infected Sf9 cells.

Structures are written as SMILES. Some results are limits rather than exact numbers.

Prostaglandin G/H synthase 1, sequence (P23219 whole entry): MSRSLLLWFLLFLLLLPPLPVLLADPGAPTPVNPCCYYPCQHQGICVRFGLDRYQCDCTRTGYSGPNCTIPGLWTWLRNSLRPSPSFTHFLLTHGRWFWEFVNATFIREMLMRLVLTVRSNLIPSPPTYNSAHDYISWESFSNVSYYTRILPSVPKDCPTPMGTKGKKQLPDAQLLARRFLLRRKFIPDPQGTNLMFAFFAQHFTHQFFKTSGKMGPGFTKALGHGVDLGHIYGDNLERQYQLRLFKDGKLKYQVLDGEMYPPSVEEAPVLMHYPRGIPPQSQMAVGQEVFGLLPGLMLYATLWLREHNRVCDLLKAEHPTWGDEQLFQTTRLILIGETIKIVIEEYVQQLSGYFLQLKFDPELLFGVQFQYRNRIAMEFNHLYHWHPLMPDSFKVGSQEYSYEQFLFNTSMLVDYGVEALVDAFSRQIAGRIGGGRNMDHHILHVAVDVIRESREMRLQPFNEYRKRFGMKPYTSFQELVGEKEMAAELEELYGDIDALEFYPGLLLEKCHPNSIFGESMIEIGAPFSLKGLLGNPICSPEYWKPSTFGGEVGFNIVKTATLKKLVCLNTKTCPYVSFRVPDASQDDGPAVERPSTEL

The term IC50 denotes the concentration needed to halve the response being measured. Higher therefore signals weaker potency in that assay. For `CNS(=O)(=O)c1ccc(-c2ccsc2-c2ccc(F)cc2)cc1`, the IC50 in assay [1] was 7200 nM; in assay [2], above 50000 nM.

Consider `OCc1ccc(-c2ccsc2-c2ccc(F)cc2)cc1`, for which the figures for the IC50 in assay [1] and in assay [2] were above 30000 nM and 350 nM, respectively.

For `N#Cc1ccc(-c2ccsc2-c2ccc(F)cc2)cc1`, the IC50 in assay [1] is above 30000 nM; in assay [2] it was 210 nM.

In turn, `O=C(O)Cc1ccc(-c2ccsc2-c2ccc(F)cc2)cc1` gave an IC50 in assay [1] above 30000 nM.

As to `O=C(O)c1ccc(-c2ccsc2-c2ccc(F)cc2)cc1`, the results for the IC50 in assay [1] and in assay [2] were above 30000 nM and above 50000 nM, respectively.

With `O=Cc1ccc(-c2ccsc2-c2ccc(F)cc2)cc1`, the results for the IC50 in assay [1] and in assay [2] were above 30000 nM and 980 nM, respectively.

For `COC(=O)c1ccc(-c2ccsc2-c2ccc(F)cc2)cc1`, the IC50 in assay [1] was above 30000 nM; in assay [2], 17000 nM.

For `CC(C)(O)c1cc(-c2ccc(F)cc2)c(-c2ccc(S(N)(=O)=O)cc2)s1`, the IC50 in assay [1] was 1600 nM; in assay [2], above 50000 nM.

On to `NS(=O)(=O)c1ccc(-c2ccsc2-c2ccc(F)cc2)cc1`, for which the IC50 in assay [1] amounted to 30 nM; in assay [2], 1300 nM.

Regarding `COC(=O)c1cc(-c2ccc(S(N)(=O)=O)cc2)c(-c2ccc(F)cc2)s1`, the values for the IC50 in assay [1] and in assay [2] were 70 nM and 1000 nM, respectively.

In the case of `CS(=O)(=O)c1ccc(-c2ccsc2-c2ccc(F)cc2)cc1`, the IC50 in assay [1] was 250 nM; in assay [2], above 100000 nM.

`COC(=O)c1cc(-c2ccc(F)cc2)c(-c2ccc(S(N)(=O)=O)cc2)s1`: the IC50 in assay [1] was above 30000 nM; in assay [2], above 50000 nM.

Regarding `CC(C)(O)c1cc(-c2ccc(S(N)(=O)=O)cc2)c(-c2ccc(F)cc2)s1`, the IC50 is 410 nM in assay [1] and 5400 nM in assay [2].

With `CCS(=O)(=O)c1ccc(-c2ccsc2-c2ccc(F)cc2)cc1`, the IC50 is above 30000 nM in assay [1] and above 50000 nM in assay [2].

Consider `CC(C)c1cc(-c2ccc(S(N)(=O)=O)cc2)c(-c2ccc(F)cc2)s1`, for which the IC50 came to 10 nM in assay [1] and 230 nM in assay [2].

For `C[S+]([O-])c1ccc(-c2ccsc2-c2ccc(F)cc2)cc1` (configuration not stated), the IC50 in assay [1] was above 30000 nM; in assay [2] it was 15000 nM.

Turning to `CSc1ccc(-c2ccsc2-c2ccc(F)cc2)cc1`, the IC50 in assay [1] is above 30000 nM; in assay [2], 340 nM.

As to `CC(=O)NS(=O)(=O)c1ccc(-c2ccsc2-c2ccc(F)cc2)cc1`, the results for the IC50 in assay [1] and in assay [2] were 5400 nM and above 50000 nM, respectively.

In the case of `CS(=O)(=O)c1ccc(-c2sc(Br)cc2-c2ccc(F)cc2)cc1`, the IC50 in assay [1] is 20 nM; in assay [2], 1100 nM.

Regarding `CS(=O)(=O)c1ccc(-c2sccc2-c2ccc(F)cc2)cc1`, the IC50 is 4300 nM in assay [1] and above 50000 nM in assay [2].

With `NC(=O)c1ccc(-c2ccsc2-c2ccc(F)cc2)cc1`, the IC50 in assay [1] was above 30000 nM; in assay [2], 3200 nM.

With `CC(=O)c1ccc(-c2ccsc2-c2ccc(F)cc2)cc1`, the IC50 in assay [1] is above 30000 nM; in assay [2] it was 750 nM.

Regarding `NS(=O)(=O)c1ccc(-c2sccc2-c2ccc(F)cc2)cc1`, the IC50 in assay [1] was found to be 670 nM; in assay [2], 2700 nM.

Consider `C[Se](=O)(=O)c1ccc(-c2ccsc2-c2ccc(F)cc2)cc1`, for which the IC50 in assay [1] was 550 nM; in assay [2], 32000 nM.
